# Laboratory results as given in patent US8134017B1, “Compound and use thereof” (Riken, priority 2010, dated 2012).
# Values joined by “and” are separate entries in the source; they are usually repeats but may differ in a detail not shown here. Equal entries are not always repeated.
# Assays:
# Format in all cases: physicochemical
# [1] = Emission spectra, aggregation-induced emission enhancement (AIEE)
# Procedure: (§1) UV-vis spectra were collected on a SHIMADZU UV-1700 spectrophotometer at RT (room temperature) using a 1 cm or a 0.1 cm quartz cuvette. Emission spectra were collected on a HITACHI F-4500 fluorescence spectrophotometer. To obtain an accurate spectrum, spectrum correction was carried out with rhodamine B concentrated solution and a secondary-standard light source. In surface photometry, a cut filter was utilized to eliminate multiple lights, such as secondary light, due to the effects of light scattering. Fluorescence spectra of all samples were measured with excitation with 365 nm. Average particle size was measured by dynamic light scattering (ELSZ-2, Otsuka Electronics).
# In contrast, the emission behavior of rhodamines in aqueous solution was reported to decrease at 10^−4 M and above because of the formation of the H-dimer. The behavior of ABPX01^+ was directly opposite to the concentration quenching of common hydrophobic dyes.
# The AIEE characteristics of 500 μM of ABPX01^+ to ABPX04^+ were investigated in various solvents. […] The emission spectrum of 500 μM of ABPX01^+ in THF was nonemissive.
# The problem was solved by using the surface photometric method (FIG. 12). Explained below are the respective surface photometric equipment configurations. […] The problem was solved by using the surface photometric method. A sample holder was set at an angle of 30° with respect to the excitation light. However, attention should be paid to the linearity of the emission intensity against the concentration for the accurate evaluation of high-concentration sample solutions, such as AIEE molecules. In addition, the relative quantum yields of ABPX in solution could not be determined because of the lack of a standard compound. The use of the surface photometric method allows development of an apparatus for the measurement of the absolute fluorescence quantum yields of high-concentration solutions.
# The emission spectra are shown in (a) and (b) of FIG. 13. The emission could be observed when 30% volume fraction of water was added. The emission was enhanced when 50% to 90% volume fraction of water was added. Absorption measurements were similarly carried out in water/THF mixtures (containing 1% TFA). As the water fraction increased, the sharp aggregate spectra appearing at approximately 548 and 600 nm grew, as shown in (c) of FIG. 13. From 30% volume fraction of water addition, level-off tails were seen, which were attributed to Mie scattering caused by nanosized particles.
# In order to check whether or not restriction of […] rotation (RIR) is involved in AIEE of ABPX01^+, viscochromism and thermochromism of the ABPX01^+ emission were examined. RIR was affected by the viscosity and temperature of the solvent. […] ABPX01^+ inhibited intramolecular rotation and induced AIEE at high viscosity and low temperature.
# [2] = UV-vis absorption spectra; conditions: 5 M, strong acid TFA/THF mixtures, cationic form
# Procedure: as §1
# What molecular species of ABPX are appropriate for the evaluation of AIEE in solution was examined. In order to examine to find the appropriate ABPX01 species, the absorbance spectra of […] of ABPX01 were measured in acid or alkaline solution. In THF solution and 1% TEA/THF mixture, the spectra had no peaks that were attributable to the neutral lactonoid species ABPX01^0. In the strong acid solutions of the TFA/THF mixtures, the absorbance spectra having two peaks at 490 nm and 540 nm should be attributable to the cationic form of ABPX01^+. ABPX01^+ is a quinonoid form delocalized over the luminophore and is therefore appropriate for the emission analysis.
# The emission spectra are shown in (a) and (b) of FIG. 13. […]
# [3] = Solubility in organic solvents and water
# [4] = Particle size of aggregates by dynamic laser scattering (DLS); conditions: 500 μM, 90% water/THF (1% TFA), 25° C.
# Procedure: as §1
# With the use of dynamic laser scattering (DLS), the particle size of ABPX01^+ was examined in 90% water/THF mixtures (containing 1% TFA) at 25° C. […] As illustrated in (b) of FIG. 14, the particle size of ABPX01^+ aggregates was 500 nm immediately after the preparation of ABPX01^+. The ABPX01^+ aggregates then grew to a size of more than 1200 nm after 30 min. The particle size of ABPX01^+ in methanol and chloroform (respectively, containing 1% TFA) could not be calculated because the fluctuation of the scattered photons was not sufficiently observed owing to the subnanometer size.
substance,measurement,setting,value
"3′,3″-Bis (oxospriroisobenzofuran)-3,7-bis(diethylamino)benzopyranoxanthene [ABPX01]",AIEE,"[1]; 500 μM in 1% TFA/chloroform, methanol, ethanol or acetone",exhibited AIEE
same,emission in THF,[1]; 500 μM in THF,nonemissive
same,volume fraction of water at which emission could be observed,"[1]; 500 μM, water/THF mixtures",30%
same,emission intensity with increasing concentration,"[1]; 5, 50, 500 μM in 1% TFA/methanol, excitation 365 nm",increased
same,emission with increasing solvent viscosity or decreasing temperature,[1]; glycerol/methanol viscosity increased or methanol temperature decreased,increased
same,absorbance peaks,[2],490 nm and 540 nm
same,solubility in THF,[3]; THF,easily dissolved
same,solubility in organic solvents,"[3]; chloroform, methanol, acetone, THF, ethanol",easy to dissolve
same,solubility in water,[3],not easy to dissolve
same,solubility in water,[3]; listed as ABPX01^+,not in water
same,particle size of aggregates,[4]; after 30 min,more than 1200 nm
same,particle size of aggregates,[4]; immediately after preparation,500 nm
